Like-named read-outs stand apart in the source and are kept apart here.
What was measured:
[1] = system: pENSA; assay: pENSA level by immunofluorescence (described method: in vitro kinase analysis with GST-tag-MASTL and His-tag-ENSA); assay type: cell-based; details: for pENSA (%) Immunofluor ecense: footnote b: concentration 10 µM; for pENSA (%) Immunofluor ecense (1 µM): compound 1 µM
Experimental: Two recombinant GST-tag-MASTL (Thermo Fisher Scientific) and His-tag-ENSA (Sino Biological Inc., Beijing, China) were used for in vitro kinase analysis. In vitro kinase analysis was performed as described in the literature [Front Oncol 2020, 10, 571601, 39-202021-10-20doi:10.3389/fonc.2020.571601.].
Phosphorylated ENSA (pENSA), which is activated by phosphorylation by MASTL, can be utilized as a biomarker as it is expected that its activity will be inhibited along with the inhibition of MASTL. In the cell viability assay, MCF7 refers to a breast cancer cell line, and MCF10A refers to a normal breast […] cell line.

[2] = system: MCF7 breast cancer cell lines; assay: Cell viability analysis, WST-8 assay, MCF7; details: Homo sapiens, MCF7, 72 h; for viability at 10 µM: read-out: Cell viability (%) WST-8, MCF7, footnote b: concentration 10 µM, 72 hours; for IC50: read-out: IC50 Cell viability (MCF7)
Experimental: MCF7 breast cancer cell lines and MCF10A normal breast cancer cell lines were treated with serial dilutions of the compounds of the present invention ranging from 1 µM to 15.63 nM for 72 hours. Cell viability was measured by the WST-8 assay (Cyto XTM cell viability assay kit; LPS solution, Daejeon, Korea) according to the manufacturer's instructions.

[3] = target: T1, Recombinant GST-TAG-MASTL (Homo sapiens, UniProt Q96GX5); assay: HTRF-based kinase assay (HTRF KinEASE assay kit); assay type: biochemical; details: for activity at 10 µM: read-out: MASTL activity (%) HTRF; for activity at 1 µM: read-out: MASTL activity (%) HTRF (1 µM)
T1 construct: GST; purchased Thermo Fisher Scientific
T1 sequence (Q96GX5 1-879): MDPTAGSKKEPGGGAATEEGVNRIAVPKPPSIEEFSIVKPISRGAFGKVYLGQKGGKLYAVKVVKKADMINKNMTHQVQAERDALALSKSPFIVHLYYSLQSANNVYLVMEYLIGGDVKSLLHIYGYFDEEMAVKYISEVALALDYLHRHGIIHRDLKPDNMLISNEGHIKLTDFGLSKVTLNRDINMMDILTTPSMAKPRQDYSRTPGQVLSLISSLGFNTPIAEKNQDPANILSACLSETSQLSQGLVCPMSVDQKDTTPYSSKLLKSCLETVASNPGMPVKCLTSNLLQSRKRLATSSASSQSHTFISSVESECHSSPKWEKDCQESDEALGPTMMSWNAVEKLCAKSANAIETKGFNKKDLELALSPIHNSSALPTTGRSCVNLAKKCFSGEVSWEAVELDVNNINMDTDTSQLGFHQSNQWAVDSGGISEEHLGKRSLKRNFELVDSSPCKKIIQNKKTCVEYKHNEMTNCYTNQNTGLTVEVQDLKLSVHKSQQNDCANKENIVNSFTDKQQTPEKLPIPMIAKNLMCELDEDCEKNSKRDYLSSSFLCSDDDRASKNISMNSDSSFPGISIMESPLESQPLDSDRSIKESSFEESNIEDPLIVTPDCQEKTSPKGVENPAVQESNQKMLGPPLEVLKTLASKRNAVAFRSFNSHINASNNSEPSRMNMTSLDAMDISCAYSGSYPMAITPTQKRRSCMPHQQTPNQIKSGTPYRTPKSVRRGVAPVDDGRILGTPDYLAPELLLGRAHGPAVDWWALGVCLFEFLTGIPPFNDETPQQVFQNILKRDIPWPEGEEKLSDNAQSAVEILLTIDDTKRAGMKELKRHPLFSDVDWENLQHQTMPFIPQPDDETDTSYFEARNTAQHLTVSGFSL
From the text: Recombinant GST-TAG-MASTL (Thermo Fisher Scientific, MA, USA) was used for HTRF-based kinase assays. The HTRF KinEASE assay kit (CisBio, MA, USA) was used according to the manufacturer's instructions.

[4] = HTRF, read-out: IC50(nM) MASTL activity
[5] = footnote b: concentration 10 µM
[6] = read-out: Cell viability (%) WST-8, MCF7 (1 µM), compound 1 µM, 72 hours
[7] = read-out: Cell viability (%) WST-8, MCF7 (1 µM)

O=S(=O)(C1CCCCC1)N1CC2CC1CN2c1nc(Nc2cc(C3CC3)[nH]n2)c2ccccc2n1 (centres unmarked) [compound 15k, 2-(5-(cyclohexylsulfonyl)-2,5-diazabicyclo[2.2.1]heptan-2-yl)-M-(5-cyclopropyl-1G-pyrazol-3-yl)quinazolin-4-amine]
pENSA (%) Immunofluor ecense [1]: 0.5^b % | IC50 ([1]; unit µM, read-out: IC50 pENSA): 3.5 µM | viability at 10 µM [2]: 12.7% | IC50 [2]: 4100 nM | IC50 [3, 4]: 152 nM | activity at 10 µM [3, 5]: 11.3%

O=S(=O)(c1ccc2ccccc2c1)N1CC2CC1CN2c1nc(Nc2cc(C3CC3)[nH]n2)c2ccccc2n1 (centres unmarked) [compound 15y, M-(5-cyclopropyl-1G-pyrazol-3-yl)-2-(5-(naphthalen-2-ylsulfonyl)-2,5-diazabicyclo[2.2.1]heptan-2-yl)quinazolin-4-amine]
pENSA (%) Immunofluor ecense [1]: 35.5^b % | IC50 ([1]; unit µM, read-out: IC50 pENSA): 6.9 µM | viability at 10 µM [2]: 64.1% | IC50 [2]: 8200 nM | IC50 [3, 4]: 928 nM | activity at 10 µM [3, 5]: 18.5%

CC(=O)c1ccc(S(=O)(=O)N2CC3CC2CN3c2nc(Nc3cc(C4CC4)[nH]n3)c3ccccc3n2)cc1 (centres unmarked) [compound 15s, 1-(4-((5-(4-((5-cyclopropyl-1G-pyrazol-3-yl)amino)quinazolin-2-yl)-2,5-diazabicyclo[2.2.1]heptan-2-yl)sulfonyl)phenyl)ethan-1-one]
pENSA (%) Immunofluor ecense [1]: 0.2^b % | IC50 ([1]; unit µM, read-out: IC50 pENSA): 2.2 µM | viability at 10 µM [2]: 5.1% | IC50 [2]: 2900 nM | IC50 [3, 4]: 354 nM | activity at 10 µM [3, 5]: 19.2%

N#CCc1ccc(Nc2nc(Nc3cc[nH]n3)c3ccccc3n2)cc1 [compound 3o, 2-(4-((4-((1G-pyrazol-3-yl)amino)quinazolin-2-yl)amino)phenyl)acetonitrile]
viability at 1 µM [2, 6]: 108% | IC50 [3]: 2600 nM | activity at 1 µM [3]: 102%

COc1cccc(S(=O)(=O)N2CC3CC2CN3c2nc(Nc3cc(C4CC4)[nH]n3)c3ccccc3n2)c1 (centres unmarked) [compound 15r, M-(5-cyclopropyl-1G-pyrazol-3-yl)-2-(5-((3-methoxyphenyl)sulfonyl)-2,5-diazabicyclo[2.2.1]heptan-2-yl)quinazolin-4-amine]
pENSA (%) Immunofluor ecense [1]: 0.2^b % | IC50 ([1]; unit µM, read-out: IC50 pENSA): 5.5 µM | viability at 10 µM [2]: 19% | IC50 [2]: 4300 nM | IC50 [3, 4]: 492 nM | activity at 10 µM [3, 5]: 22.7%

N#CCc1ccc(Nc2nc(Nc3ccccc3O)c3ccccc3n2)cc1 [compound 3u, 2-(4-((4-((2-hydroxyphenyl)amino)quinazolin-2-yl)amino)phenyl)acetonitrile]
IC50 ([1]; read-out: IC50(nM) pENSA): 0.678 µM | viability at 1 µM [2, 6]: 49.3% | activity at 1 µM ([3]; compound 1 µM): 121%

Cc1cccc(S(=O)(=O)N2CC3CC2CN3c2nc(Nc3cc(C4CC4)[nH]n3)c3ccccc3n2)c1 (centres unmarked) [compound 15t, M-(5-cyclopropyl-1G-pyrazol-3-yl)-2-(5-(/ -tolylsulfonyl)-2,5-diazabicyclo[2.2.1]heptan-2-yl)quinazolin-4-amine]
pENSA (%) Immunofluor ecense [1]: 0^b % | IC50 ([1]; unit µM, read-out: IC50 pENSA): 6.2 µM | viability at 10 µM [2]: 35.5% | IC50 [2]: 7900 nM | IC50 [3, 4]: 563 nM | activity at 10 µM [3, 5]: 15.5%

Cc1nn(CC(C)C)c(C)c1Nc1nc(Nc2ccc(CC#N)cc2)nc2ccccc12 [compound 3b, 2-(4-((4-((1-isobutyl-3,5-dimethyl-1G-pyrazol-4-yl)amino)quinazolin-2-yl)amino)phenyl)acetonitrile]
pENSA (%) Immunofluor ecense [1]: 44.3^b % | viability at 10 µM [2]: 55.5% | activity at 10 µM [3]: 123%

N#CCc1ccc(Nc2nc(Nc3ccccc3OCc3ccccc3)c3ccccc3n2)cc1 [compound 3t, 2-(4-((4-((2-(benzyloxy)phenyl)amino)quinazolin-2-yl)amino)phenyl)acetonitrile]
viability at 1 µM [2, 6]: 45.4% | activity at 1 µM ([3]; compound 1 µM): 120%

Cc1n[nH]cc1Nc1nc(Nc2ccc(CC#N)cc2)nc2ccccc12 [compound 3e, 2-(4-((4-((3-methyl-1G-pyrazol-4-yl)amino)quinazolin-2-yl)amino)phenyl)acetonitrile]
pENSA (%) Immunofluor ecense [1]: 102^b % | viability at 10 µM [2]: 108% | activity at 10 µM [3]: 100%

COc1cc(Nc2nc(Nc3ccc(CC#N)cc3)nc3ccccc23)n[nH]1 [compound 3r, 2-(4-((4-((5-methoxy-1G-pyrazol-3-yl)amino)quinazolin-2-yl)amino)phenyl)acetonitrile]
viability at 1 µM [2, 6]: 98.3% | IC50 [3]: 816 nM | activity at 1 µM [3]: 67.2%

O=S(=O)(c1cccs1)N1CC2CC1CN2c1nc(Nc2cc(C3CC3)[nH]n2)c2ccccc2n1 (centres unmarked) [compound 15ab, M-(5-cyclopropyl-1G-pyrazol-3-yl)-2-(5-(thiophen-2-ylsulfonyl)-2,5-diazabicyclo[2.2.1]heptan-2-yl)quinazolin-4-amine]
pENSA (%) Immunofluor ecense [1]: 0.4^b % | IC50 ([1]; unit µM, read-out: IC50 pENSA): 2.5 µM | viability at 10 µM [2]: 3.9% | IC50 [2]: 2400 nM | IC50 [3, 4]: 222 nM | activity at 10 µM [3, 5]: 17.3%

Cc1cc(Nc2nc(Nc3ccc(CC#N)cc3)nc3ccccc23)n[nH]1 [compound 3p, 2-(4-((4-((5-methyl-1G-pyrazol-3-yl)amino)quinazolin-2-yl)amino)phenyl)acetonitrile]
pENSA (%) Immunofluor ecense (1 µM) [1]: 27.5% | IC50 ([1]; read-out: IC50(nM) pENSA): 0.239 µM | viability at 1 µM [2, 7]: 106% | IC50 [3, 4]: 330 nM | activity at 1 µM ([3]; compound 1 µM): 53.1%

N#CCc1ccc(Nc2nc(Nc3cc(Br)[nH]n3)c3ccccc3n2)cc1 [compound 3q, 2-(4-((4-((5-bromo-1G-pyrazol-3-yl)amino)quinazolin-2-yl)amino)phenyl)acetonitrile]
viability at 1 µM [2, 6]: 105% | IC50 [3]: 640 nM | activity at 1 µM [3]: 63.1%

O=S(=O)(Cc1ccccc1)N1CC2CC1CN2c1nc(Nc2cc(C3CC3)[nH]n2)c2ccccc2n1 (centres unmarked) [compound 15l, 2-(5-(benzylsulfonyl)-2,5-diazabicyclo[2.2.1]heptan-2-yl)-M-(5-cyclopropyl-1G-pyrazol-3-yl)quinazolin-4-amine]
pENSA (%) Immunofluor ecense [1]: 1.9^b % | IC50 ([1]; unit µM, read-out: IC50 pENSA): 3.7 µM | viability at 10 µM [2]: 2.4% | IC50 [2]: 2700 nM | IC50 [3, 4]: 226 nM | activity at 10 µM [3, 5]: 18.1%

O=S(=O)(C1CC1)N1CC2CC1CN2c1nc(Nc2cc(C3CC3)[nH]n2)c2ccccc2n1 (centres unmarked) [compound 15i, M-(5-cyclopropyl-1G-pyrazol-3-yl)-2-(5-(cyclopropylsulfonyl)-2,5-diazabicyclo[2.2.1]heptan-2-yl)quinazolin-4-amine]
pENSA (%) Immunofluor ecense [1]: 0.2^b % | IC50 ([1]; unit µM, read-out: IC50 pENSA): 2.1 µM | viability at 10 µM [2]: 5.2% | IC50 [2]: 2000 nM | IC50 [3, 4]: 310 nM | activity at 10 µM [3, 5]: 15.5%

O=S(=O)(c1c(F)cccc1F)N1CC2CC1CN2c1nc(Nc2cc(C3CC3)[nH]n2)c2ccccc2n1 (centres unmarked) [compound 15p, M-(5-cyclopropyl-1G-pyrazol-3-yl)-2-(5-((2,6-difluorophenyl)sulfonyl)-2,5-diazabicyclo[2.2.1]heptan-2-yl)quinazolin-4-amine]
pENSA (%) Immunofluor ecense [1]: 2.6^b % | IC50 ([1]; unit µM, read-out: IC50 pENSA): 4.4 µM | viability at 10 µM [2]: 7.4% | IC50 [2]: 4100 nM | IC50 [3, 4]: 331 nM | activity at 10 µM [3, 5]: 180%

N#CCc1ccc(Nc2nc(Nc3n[nH]c4ccccc34)c3ccccc3n2)cc1 [compound 3s, 2-(4-((4-((1G-indazol-3-yl)amino)quinazolin-2-yl)amino)phenyl)acetonitrile]
pENSA (%) Immunofluor ecense (1 µM) [1]: 60.6% | viability at 1 µM [2, 7]: 100% | IC50 ([3]; HTRF, unit µM, read-out: IC50 MASTL activity): 4400 nM | activity at 1 µM ([3]; compound 1 µM): 102%

From patent EP4786466A1, “QUINAZOLINE DERIVATIVE, SALT THEREOF, AND PHARMACEUTICAL COMPOSITION COMPRISING SAME AS ACTIVE INGREDIENT” (Korea Research Institute of Chemical Technology, priority 2023, dated 2025)
